According to patent publication US11332756B2, “RNA virus vectors carrying DAI and RIPK3” (Institute For Cancer Research, priority 2016, dated 2022):
*1 amine or outer side, *2 acyl side, *3 side chain or, on linkers, in order; H or OH if unused. Where a SMILES comes first, the peptide text is derived from it. Bridges are numbered along the chain shown (N, C = ends). Roman numbers before positions name the chains, in order. [ ]: non-standard residue; d: D form. The star is where a group is joined. Actinocin(9to1) = Cc1c2oc3c(C)ccc(C(=O)[*:1])c3nc-2c(C(=O)[*:2])c(N)c1=O; NMeV = CN[C@H](C(=O)O)C(C)C; Cbz = O=C(OCc1ccccc1)*; Sar = CNCC(=O)O; CH2F = FC*

Columns and labels:
RIPK3-RIPK1 necrosome [1] = biological target: T1, RIPK3-RIPK1 necrosome (Mus musculus, UniProt Q9QZL0); test: IAV-induced RIPK3-RIPK1 necrosome formation (RIPK3 immunoprecipitation) in MEFs; assay type: cell-based, murine; conditions: for IAV (PR8)-induced RIPK3-RIPK1 necrosome / complex formation: PR8-infected MEFs, cells pre-treated with agent, RIPK3 immunoprecipitation
T1 construct: RIPK3 was immunoprecipitated from lysates of PR8-infected MEFs; endogenous in cells; host or cells: wild-type mouse embryo fibroblasts (MEFs)
T1 sequence (Q9QZL0 whole entry): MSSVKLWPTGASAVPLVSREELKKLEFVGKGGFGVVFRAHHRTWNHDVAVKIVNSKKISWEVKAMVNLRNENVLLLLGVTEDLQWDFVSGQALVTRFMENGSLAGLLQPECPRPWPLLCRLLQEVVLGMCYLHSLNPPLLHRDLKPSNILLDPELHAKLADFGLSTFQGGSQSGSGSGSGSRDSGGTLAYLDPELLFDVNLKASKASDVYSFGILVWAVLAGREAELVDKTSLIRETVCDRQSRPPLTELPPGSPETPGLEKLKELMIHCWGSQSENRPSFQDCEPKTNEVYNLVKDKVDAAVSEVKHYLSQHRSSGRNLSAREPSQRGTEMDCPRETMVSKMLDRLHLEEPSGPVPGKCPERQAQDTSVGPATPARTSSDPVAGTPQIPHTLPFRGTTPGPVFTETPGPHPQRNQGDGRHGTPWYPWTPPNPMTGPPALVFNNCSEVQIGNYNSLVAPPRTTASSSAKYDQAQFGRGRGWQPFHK
Source text: (§1) IAV replication results in assembly of a RIPK3 complex containing RIPK1, FADD and MLKL. A molecular feature of RIPK3 dependent cell death is the stimulus-driven formation of a molecular complex called the necrosome, comprising as its core phosphorylated forms of RIPK3 and RIPK1, together with FADD and MLKL. From the necrosome, RIPK3 can activate both necroptosis and apoptosis, depending on target availability or RIPK3 activity. To test if IAV induced formation of a necrosome, RIPK3 was immunoprecipitated from lysates of PR8-infected MEFs, and immunoprecipitates were examined for the presence of slower-mobility forms of phosphorylated RIPK1. PR8 activated necrosome formation to a significant extent, as did the combination of PR8+zVAD (see, FIG. 4A, left and middle panels). Like TNF-α (see, FIG. 4A, right panels), IAV infection also drove the recruitment of FADD and MLKL into the RIPK3-RIPK1 necrosome.

RIPK3-RIPK1 necrosome [2] = biological target: T1, RIPK3-RIPK1 necrosome; test: TNF-α-induced necrosome assembly in MEFs; assay type: cell-based, murine; conditions: same doses as in PR8 experiment; not shown
Source text: as §1

IAV (PR8) = assay type: cell-based, Influenza A virus
[3] = system: wild-type MEFs infected with PR8; assay type: cell-based, murine
[4] = system: ripk1−/− MEFs infected with PR8; assay type: cell-based, murine
[5] = system: TCZ-treated wild-type MEFs; assay type: cell-based, murine
[6] = system: mlkl−/− MEFs infected with PR8; assay type: cell-based, murine
[7] = system: apoptosis activated by TRAIL and cycloheximide in MEFs; test: Apoptosis induced by TRAIL and cycloheximide; assay type: cell-based, murine; conditions: TRAIL 2 μg/ml + CHX 250 ng/ml; anti-TRAIL-R2 10 μg/ml; zVAD same dose as in PR8 test
[8] = system: MLKL phosphorylation and cleavage of caspase 8; test: Immunoblot of phosphorylated MLKL and cleaved caspase 8 in PR8-infected MEFs; assay type: cell-based, murine; conditions: wild-type MEFs, zVAD 50 μM
[9] = system: ripk3−/− MEFs infected with PR8; assay type: cell-based, murine

Structure (SMILES)	IAV (PR8)-induced RIPK3-RIPK1 necrosome / complex formation (RIPK3-RIPK1 necrosome [1])	viral replication (IAV (PR8))	protection of viability after PR8 infection, inhibitor alone [3]	other results
Cc1c2oc3c(C)ccc(C(=O)N[C@@H]4C(=O)N[C@H](C(C)C)C(=O)N5CCC[C@H]5C(=O)N(C)CC(=O)N(C)[C@@H](C(C)C)C(=O)O[C@@H]4C)c3nc-2c(C(=O)N[C@@H]2C(=O)N[C@H](C(C)C)C(=O)N3CCC[C@H]3C(=O)N(C)CC(=O)N(C)[C@@H](C(C)C)C(=O)O[C@@H]2C)c(N)c1=O [ActD, Actinomycin D] (I: T[dV]P[Sar][NMeV] / II: T[dV]P[Sar][NMeV]; ester I:1-I:C, II:1-II:C; linker I:N-II:N via Actinocin(9to1))	effectively prevented	effectively prevented	–	effect on TNF-α-induced necrosome assembly (RIPK3-RIPK1 necrosome [2]): Neither ActD nor CHX at these doses affected
C[C@@H]1C[C@@H]([C@H](O)CC2CC(=O)NC(=O)C2)C(=O)[C@@H](C)C1 [CHX, cycloheximide]	effectively prevented	effectively prevented	–	effect on TNF-α-induced necrosome assembly (RIPK3-RIPK1 necrosome [2]): Neither ActD nor CHX at these doses affected
CN1C(=O)[C@@H](NC(=O)c2cc(Cc3ccccc3)on2)COc2ccccc21 [GSK'481]	inability of these agents to prevent IAV-driven necrosome formation	–	did not have any discernible protective effect	–
Cc1cc(-c2cnc(N)c3c(-c4ccc5scnc5c4)csc23)n(C)n1 [GSK'843]	blocked PR8-induced necrosome assembly	–	failed to prevent PR8-induced cell death	protection from PR8-induced cell death in ripk1−/− MEFs [4]: almost-fully protected; protection against TNF-α-induced necroptosis / cell death [5]: fully protective
CC(C)S(=O)(=O)c1ccc2nccc(Nc3ccc4scnc4c3)c2c1 [GSK'872]	blocked PR8-induced necrosome assembly	–	failed to prevent PR8-induced cell death	protection from PR8-induced cell death in ripk1−/− MEFs [4]: almost-fully protected; protection against TNF-α-induced necroptosis / cell death [5]: fully protective
CC(C)(C)C(=O)N1N=CC[C@H]1c1ccccc1 [GSK'963]	inability of these agents to prevent IAV-driven necrosome formation	–	did not have any discernible protective effect	–
CN1C(=O)C(Cc2c[nH]c3ccccc23)NC1=S (stereo not drawn) [Nec-1, Necrostatin 1]	inability of these agents to prevent IAV-driven necrosome formation	–	did not have any discernible protective effect	–
Cc1onc(-c2ccccc2)c1C(=O)N1CCN(c2ccc([N+](=O)[O-])cc2Cl)CC1 [nucleozin]	potently blocked	abrogated viral replication	–	–
CC[C@H](C)[C@H](NC(=O)OCc1ccccc1)C(=O)N[C@@H](CCC(=O)OC)C(=O)N[C@H](C(=O)N[C@@H](CC(=O)OC)C(=O)CF)[C@@H](C)O [zIETD, zIETD.fmk] (Cbz-IE(OMe)TD(OMe)-CH2F)	–	–	–	protection against PR8 compared with zVAD [6]: less protection against PR8 than zVAD; rescue from PR8-induced cell death in mlkl−/− MEFs [6]: significant protection
COC(=O)C[C@H](NC(=O)[C@H](C)NC(=O)[C@@H](NC(=O)OCc1ccccc1)C(C)C)C(=O)CF [zVAD, zVAD.fmk] (Cbz-Val-Ala-Asp(OMe)-CH2F)	–	–	did not protect	protection against apoptosis induced by TRAIL and cycloheximide [7]: prevented apoptosis; necrosome formation induced by the agent alone (RIPK3-RIPK1 necrosome [1]; zVAD alone, 25 μM, no virus): did not induce detectable necrosome formation; rescue from PR8-induced cell death in mlkl−/− MEFs [6]: fully rescued; IAV-induced cleavage of caspase 8 [8]: inhibited; viability of PR8-infected ripk3−/− MEFs [9]: remained mostly alive
